From patent US11613538B2, “Method of inhibiting or reducing a viral infection” (PTC Therapeutics, Inc., priority 2009, dated 2023) come the findings set out here.

Each structure is given as a SMILES string.

The test system of the test is hypoxia-induced VEGF production in HeLa cells. As to the kind of experiment: cells. The conditions noted are these: Homo sapiens, HeLa. In kind it is cell-based, human.
The term EC50 denotes the midpoint of the concentration-response curve. In turn, `O=C(OC1CCCC1)N1CCc2c([nH]c3ccc(Cl)cc23)[C@@H]1c1ccc(OCC[C@H](O)CO)cc1` [Compound 1320] came in with an EC50 of under 8 nM.
`CC(CO)(CO)COc1ccc([C@H]2c3[nH]c4ccc(Cl)cc4c3CCN2C(=O)OC2CCCC2)cc1` [Compound 1321] displayed an EC50 of under 8 nM.
In turn, `O=C(OC1CCCC1)N1CCc2c([nH]c3ccc(Cl)cc23)[C@@H]1c1ccc(OC[C@H](O)CO)cc1` [Compound 1322] displayed an EC50 of under 8 nM.
To `O=C(OC1CCCC1)N1CCc2c([nH]c3ccc(Cl)cc23)[C@@H]1c1ccc(OC[C@@H](O)CO)cc1` [Compound 1323] belongs under 8 nM; to `CCOC(=O)N1CCc2c([nH]c3ccc(Cl)cc23)[C@@H]1c1ccc(OCC(CC)(CO)CO)cc1` [Compound 1324], under 8 nM.
Consider `CCC(CO)(CO)COc1ccc([C@H]2c3[nH]c4ccc(Cl)cc4c3CCN2C(=O)OCC(C)C)cc1` [Compound 1326], for which the 50% effective concentration (EC50) was under 8 nM.
`CCC(CO)(CO)COc1ccc([C@H]2c3[nH]c4ccc(Cl)cc4c3CCN2C(=O)OC2CCCC2)cc1` [Compound 1327] registered an EC50 of under 8 nM.
In turn, `O=C(Oc1ccc(Cl)cc1)N1CCc2c([nH]c3ccc(Cl)cc23)[C@H]1c1ccc(O)cc1` [Compound 1332] returned an EC50 of over 1000 nM.
The same measure for `CCOC(=O)C(=O)N1CCc2c([nH]c3ccc(Cl)cc23)C1c1ccc(OC)cc1` (centres unmarked) [Compound 1334]: 40 to 200 nM; for `COc1ccc(C2c3[nH]c4ccc(Cl)cc4c3CCN2C(=O)C(=O)OC(C)C)cc1` (centres unmarked) [Compound 1338]: 8 to 40 nM.
The same measure for `CCCOC(=O)C(=O)N1CCc2c([nH]c3ccc(Cl)cc23)C1c1ccc(OC)cc1` (centres unmarked) [Compound 1339]: 8 to 40 nM.
The same measure for `CCOC(=O)N1CCc2c([nH]c3ccc(Br)cc23)C1c1ccc(OCC(O)CO)cc1` (centres unmarked) [Compound 1340]: 8 to 40 nM; for `CC(C)OC(=O)N1CCc2c([nH]c3ccc(Br)cc23)C1c1ccc(OCC(O)CO)cc1` (centres unmarked) [Compound 1341]: 8 to 40 nM; for `CC(C)COC(=O)N1CCc2c([nH]c3ccc(Br)cc23)C1c1ccc(OCC(O)CO)cc1` (centres unmarked) [Compound 1342]: under 8 nM.
Consider `CCOC(=O)N1CCc2c([nH]c3ccc(Br)cc23)C1c1ccc(OCC[C@H](O)CO)cc1` (some centres unmarked) [Compound 1345], for which the EC50 was under 8 nM.
To `CC(C)OC(=O)N1CCc2c([nH]c3ccc(Br)cc23)C1c1ccc(OCC[C@H](O)CO)cc1` (some centres unmarked) [Compound 1346] belongs under 8 nM; to `CC(C)COC(=O)N1CCc2c([nH]c3ccc(Br)cc23)C1c1ccc(OCC[C@H](O)CO)cc1` (some centres unmarked) [Compound 1347], under 8 nM; to `CC(C)OC(=O)N1CCc2c([nH]c3ccc(Br)cc23)C1c1ccc(OCC(C)(CO)CO)cc1` (centres unmarked) [Compound 1350], under 8 nM.
For the compound `CC(C)COC(=O)N1CCc2c([nH]c3ccc(Br)cc23)C1c1ccc(OCC(C)(CO)CO)cc1` (centres unmarked) [Compound 1351], the EC50 was under 8 nM.
On to `CCOC(=O)N1CCc2c([nH]c3ccc(Br)cc23)C1c1ccc(OCC(CC)(CO)CO)cc1` (centres unmarked) [Compound 1354], for which the EC50 was under 8 nM.
The same measure for `CCC(CO)(CO)COc1ccc(C2c3[nH]c4ccc(Br)cc4c3CCN2C(=O)OC(C)C)cc1` (centres unmarked) [Compound 1355]: under 8 nM.
The same measure for `CCC(CO)(CO)COc1ccc(C2c3[nH]c4ccc(Br)cc4c3CCN2C(=O)OCC(C)C)cc1` (centres unmarked) [Compound 1356]: under 8 nM; for `CCOC(=O)N1CCc2c([nH]c3ccc(Cl)cc23)[C@@H]1c1ccc(OCC2(CO)COCOC2)cc1` [Compound 1359]: 8 to 40 nM; for `CC(C)OC(=O)N1CCc2c([nH]c3ccc(Cl)cc23)[C@@H]1c1ccc(OCC2(CO)COCOC2)cc1` [Compound 1360]: 8 to 40 nM.
To `COC(=O)[C@H]1CCCN1CCCOc1ccc(C2c3[nH]c4ccc(Cl)cc4c3CCN2C(=O)Oc2ccc(Cl)cc2)cc1` (some centres unmarked) [Compound 1362] belongs under 8 nM.
`CCOC(=O)N1CCc2c([nH]c3ccc(Cl)cc23)C1c1cccc(OCCCN2CCN(C(C)=O)CC2)c1` (centres unmarked) [Compound 1363] registered an EC50 of 40 to 200 nM.
